Laboratory results: publication PMC9736855, “Discovery of 3-Amino-1H-pyrazole-Based Kinase Inhibitors to Illuminate the Understudied PCTAIRE Family” (International Journal of Molecular Sciences, 2022)

Tests used:
Assay in all cases: DSF
Format in all cases: binding
CAMK4 = target: T1, CAMK4 (Homo sapiens, UniProt Q16566)
T1 construct: purchased in-house DSF panel (SGC Frankfurt)
T1 sequence (Q16566 46-300): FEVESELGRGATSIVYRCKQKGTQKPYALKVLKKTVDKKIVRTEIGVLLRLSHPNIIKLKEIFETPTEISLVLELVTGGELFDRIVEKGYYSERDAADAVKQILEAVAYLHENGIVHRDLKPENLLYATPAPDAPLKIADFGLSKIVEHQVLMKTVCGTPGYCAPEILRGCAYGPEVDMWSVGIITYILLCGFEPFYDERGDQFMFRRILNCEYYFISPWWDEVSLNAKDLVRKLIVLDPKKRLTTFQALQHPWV
Method: (§1) Measurements were performed in duplicates.

CDC42BPA = target: T2, CDC42BPA (Homo sapiens, UniProt Q5VT25)
T2 construct: purchased in-house DSF panel (SGC Frankfurt)
Method: as §1

DAPK1 = target: T3, DAPK1 (Homo sapiens, UniProt P53355)
T3 construct: purchased in-house DSF panel (SGC Frankfurt)
Method: as §1

DCAMKL1 = target: T4, DCAMKL1 (Homo sapiens, UniProt O15075)
T4 construct: purchased in-house DSF panel (SGC Frankfurt)
T4 sequence (O15075 390-647): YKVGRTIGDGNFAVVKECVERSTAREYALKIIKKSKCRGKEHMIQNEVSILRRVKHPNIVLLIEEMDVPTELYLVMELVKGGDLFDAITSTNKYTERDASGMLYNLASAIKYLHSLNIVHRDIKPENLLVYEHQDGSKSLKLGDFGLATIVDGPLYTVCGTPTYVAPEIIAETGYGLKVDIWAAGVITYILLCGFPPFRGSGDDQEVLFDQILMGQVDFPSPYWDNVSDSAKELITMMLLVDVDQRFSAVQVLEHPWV
Method: as §1

EPHB3 = target: T5, EPHB3 (Homo sapiens, UniProt P54753)
T5 construct: purchased in-house DSF panel (SGC Frankfurt)
T5 sequence (P54753 616-910): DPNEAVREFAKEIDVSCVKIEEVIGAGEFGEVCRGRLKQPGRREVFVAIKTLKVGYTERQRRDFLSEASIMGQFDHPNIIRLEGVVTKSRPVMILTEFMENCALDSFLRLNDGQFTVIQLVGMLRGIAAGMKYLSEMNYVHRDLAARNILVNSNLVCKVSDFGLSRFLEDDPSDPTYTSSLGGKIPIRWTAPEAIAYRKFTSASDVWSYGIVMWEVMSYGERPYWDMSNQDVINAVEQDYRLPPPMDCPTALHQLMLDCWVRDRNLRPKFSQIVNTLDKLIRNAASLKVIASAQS
Method: as §1

FLT1 = target: T6, FLT1 (Homo sapiens, UniProt P17948)
T6 construct: purchased in-house DSF panel (SGC Frankfurt)
T6 sequence (P17948 801-1158): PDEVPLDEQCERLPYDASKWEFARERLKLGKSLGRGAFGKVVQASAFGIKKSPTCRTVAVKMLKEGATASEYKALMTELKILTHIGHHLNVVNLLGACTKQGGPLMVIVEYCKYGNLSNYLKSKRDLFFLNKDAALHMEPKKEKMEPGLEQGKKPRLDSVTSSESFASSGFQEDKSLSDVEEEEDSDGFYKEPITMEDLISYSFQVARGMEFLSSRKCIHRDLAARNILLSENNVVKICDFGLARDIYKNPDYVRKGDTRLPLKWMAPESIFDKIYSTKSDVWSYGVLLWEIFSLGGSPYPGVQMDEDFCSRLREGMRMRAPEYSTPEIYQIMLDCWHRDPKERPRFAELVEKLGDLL
Method: as §1

MAP2K7 = target: T7, MAP2K7 (Homo sapiens, UniProt O14733)
T7 construct: purchased in-house DSF panel (SGC Frankfurt)
T7 sequence (O14733 120-380): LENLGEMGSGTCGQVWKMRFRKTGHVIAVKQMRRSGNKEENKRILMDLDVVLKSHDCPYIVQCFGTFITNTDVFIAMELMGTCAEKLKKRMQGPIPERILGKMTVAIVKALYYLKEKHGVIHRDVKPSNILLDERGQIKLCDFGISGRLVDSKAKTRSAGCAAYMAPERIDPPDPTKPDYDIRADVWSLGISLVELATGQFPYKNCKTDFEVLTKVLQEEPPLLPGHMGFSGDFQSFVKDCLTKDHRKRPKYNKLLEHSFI
Method: as §1

MAPK13 = target: T8, MAPK13 (Homo sapiens, UniProt O15264)
T8 construct: purchased in-house DSF panel (SGC Frankfurt)
T8 sequence (O15264 1-365): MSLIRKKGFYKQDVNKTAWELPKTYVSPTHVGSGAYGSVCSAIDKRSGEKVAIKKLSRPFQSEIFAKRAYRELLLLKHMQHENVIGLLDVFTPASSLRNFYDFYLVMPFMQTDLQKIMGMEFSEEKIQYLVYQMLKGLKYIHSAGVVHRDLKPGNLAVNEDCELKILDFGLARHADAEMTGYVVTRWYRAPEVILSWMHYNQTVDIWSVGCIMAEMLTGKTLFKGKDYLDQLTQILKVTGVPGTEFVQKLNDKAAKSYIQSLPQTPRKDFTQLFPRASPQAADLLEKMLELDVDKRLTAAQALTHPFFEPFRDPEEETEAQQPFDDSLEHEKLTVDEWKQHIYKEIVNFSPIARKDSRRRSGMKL
Method: as §1

MELK = target: T9, MELK (Homo sapiens, UniProt Q14680)
T9 construct: purchased in-house DSF panel (SGC Frankfurt)
Method: as §1

MERTK = target: T10, MERTK (Homo sapiens, UniProt Q12866)
T10 construct: purchased in-house DSF panel (SGC Frankfurt)
T10 sequence (Q12866 570-864): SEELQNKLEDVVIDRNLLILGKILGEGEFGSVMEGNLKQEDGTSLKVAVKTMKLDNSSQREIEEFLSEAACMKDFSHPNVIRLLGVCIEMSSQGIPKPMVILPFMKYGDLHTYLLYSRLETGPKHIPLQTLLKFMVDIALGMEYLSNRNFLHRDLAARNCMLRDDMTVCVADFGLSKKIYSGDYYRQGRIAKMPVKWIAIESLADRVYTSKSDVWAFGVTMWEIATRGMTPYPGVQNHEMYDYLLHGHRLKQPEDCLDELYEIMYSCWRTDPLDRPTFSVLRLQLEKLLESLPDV
Method: as §1

OSR1 = target: T11, OSR1 (Homo sapiens, UniProt O95747)
T11 construct: purchased in-house DSF panel (SGC Frankfurt)
Method: as §1

PAK1 = target: T12, PAK1 (Homo sapiens, UniProt Q13153)
T12 construct: purchased in-house DSF panel (SGC Frankfurt)
Method: as §1

STK10 = target: T13, STK10 (Homo sapiens, UniProt O94804)
T13 construct: purchased in-house DSF panel (SGC Frankfurt)
Method: as §1

WNK1 = target: T14, WNK1 (Homo sapiens, UniProt Q9H4A3)
T14 construct: purchased in-house DSF panel (SGC Frankfurt)
Method: as §1

T9 sequence (Q14680 whole entry): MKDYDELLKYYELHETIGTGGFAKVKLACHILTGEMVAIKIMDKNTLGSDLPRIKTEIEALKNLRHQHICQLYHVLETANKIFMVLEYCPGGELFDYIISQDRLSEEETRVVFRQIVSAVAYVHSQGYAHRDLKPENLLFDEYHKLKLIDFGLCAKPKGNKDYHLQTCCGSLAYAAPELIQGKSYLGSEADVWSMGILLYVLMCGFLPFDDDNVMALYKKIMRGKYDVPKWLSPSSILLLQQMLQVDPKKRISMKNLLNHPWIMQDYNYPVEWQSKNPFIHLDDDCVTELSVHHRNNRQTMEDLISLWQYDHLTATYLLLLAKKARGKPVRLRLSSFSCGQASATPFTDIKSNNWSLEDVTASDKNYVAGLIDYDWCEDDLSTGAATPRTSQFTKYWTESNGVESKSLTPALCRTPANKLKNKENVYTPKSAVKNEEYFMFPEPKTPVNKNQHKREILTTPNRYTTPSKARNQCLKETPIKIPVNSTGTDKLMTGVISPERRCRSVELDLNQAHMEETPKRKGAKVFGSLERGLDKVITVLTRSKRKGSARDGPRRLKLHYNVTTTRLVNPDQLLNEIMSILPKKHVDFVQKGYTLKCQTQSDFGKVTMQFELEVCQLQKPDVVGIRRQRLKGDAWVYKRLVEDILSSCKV
T13 sequence (O94804 18-317): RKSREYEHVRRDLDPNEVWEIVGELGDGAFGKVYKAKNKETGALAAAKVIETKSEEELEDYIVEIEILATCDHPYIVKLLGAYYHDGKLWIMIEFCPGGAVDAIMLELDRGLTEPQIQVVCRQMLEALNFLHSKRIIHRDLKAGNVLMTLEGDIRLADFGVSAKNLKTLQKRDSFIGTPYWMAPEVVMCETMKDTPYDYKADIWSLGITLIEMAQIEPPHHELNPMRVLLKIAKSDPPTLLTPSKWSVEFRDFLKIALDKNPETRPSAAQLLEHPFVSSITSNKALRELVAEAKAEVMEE
T11 sequence (O95747 1-303): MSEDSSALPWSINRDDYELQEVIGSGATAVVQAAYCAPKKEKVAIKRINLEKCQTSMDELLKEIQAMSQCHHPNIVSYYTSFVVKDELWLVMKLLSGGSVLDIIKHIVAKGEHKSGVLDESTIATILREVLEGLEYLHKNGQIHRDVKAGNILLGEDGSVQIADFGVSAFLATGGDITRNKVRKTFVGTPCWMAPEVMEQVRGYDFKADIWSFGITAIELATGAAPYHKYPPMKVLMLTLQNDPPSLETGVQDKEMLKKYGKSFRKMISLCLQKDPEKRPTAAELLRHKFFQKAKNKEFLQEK
T12 sequence (Q13153 249-545): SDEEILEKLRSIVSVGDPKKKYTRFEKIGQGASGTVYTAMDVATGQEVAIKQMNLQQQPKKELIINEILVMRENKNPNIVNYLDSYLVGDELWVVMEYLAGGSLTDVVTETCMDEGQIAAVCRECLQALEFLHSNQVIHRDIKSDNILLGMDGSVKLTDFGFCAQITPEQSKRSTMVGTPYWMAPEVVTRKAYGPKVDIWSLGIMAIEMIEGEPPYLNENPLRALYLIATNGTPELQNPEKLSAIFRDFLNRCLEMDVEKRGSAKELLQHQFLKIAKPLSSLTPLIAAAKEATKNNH
T2 sequence (Q5VT25 1-414): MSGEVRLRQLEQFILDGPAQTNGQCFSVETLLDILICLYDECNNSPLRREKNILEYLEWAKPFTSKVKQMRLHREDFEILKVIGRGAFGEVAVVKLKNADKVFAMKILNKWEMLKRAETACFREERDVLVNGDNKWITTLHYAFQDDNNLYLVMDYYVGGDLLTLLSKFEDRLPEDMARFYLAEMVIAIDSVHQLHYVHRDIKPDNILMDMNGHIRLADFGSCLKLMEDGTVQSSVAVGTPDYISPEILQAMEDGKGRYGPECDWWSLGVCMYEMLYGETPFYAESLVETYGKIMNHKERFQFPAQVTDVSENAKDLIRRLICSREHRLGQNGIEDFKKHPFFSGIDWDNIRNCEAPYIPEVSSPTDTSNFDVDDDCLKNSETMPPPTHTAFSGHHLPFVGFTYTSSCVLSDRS
T3 sequence (P53355 1-285): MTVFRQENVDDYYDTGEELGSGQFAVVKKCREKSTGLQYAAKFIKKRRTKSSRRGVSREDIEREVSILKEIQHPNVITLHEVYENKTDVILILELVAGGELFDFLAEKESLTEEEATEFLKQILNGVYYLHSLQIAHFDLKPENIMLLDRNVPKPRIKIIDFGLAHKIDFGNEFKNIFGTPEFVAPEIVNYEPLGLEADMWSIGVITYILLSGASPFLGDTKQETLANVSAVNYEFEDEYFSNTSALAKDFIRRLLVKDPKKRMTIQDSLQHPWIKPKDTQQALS
T14 sequence (Q9H4A3 206-483): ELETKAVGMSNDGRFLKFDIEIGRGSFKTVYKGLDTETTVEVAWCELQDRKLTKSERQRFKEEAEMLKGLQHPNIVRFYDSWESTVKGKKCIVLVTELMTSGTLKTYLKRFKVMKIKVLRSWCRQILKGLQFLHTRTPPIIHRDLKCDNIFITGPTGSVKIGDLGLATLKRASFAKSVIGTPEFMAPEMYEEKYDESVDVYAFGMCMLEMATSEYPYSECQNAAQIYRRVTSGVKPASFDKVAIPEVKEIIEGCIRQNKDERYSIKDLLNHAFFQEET

SMILES | ΔTm CAMK4 (CAMK4) | ΔTm CDC42BPA (CDC42BPA) | ΔTm DAPK1 (DAPK1) | ΔTm DCAMKL1 (DCAMKL1) | ΔTm EPHB3 (EPHB3) | ΔTm FLT1 (FLT1) | ΔTm MAP2K7 (MAP2K7) | ΔTm MAPK13 (MAPK13) | ΔTm MELK (MELK) | ΔTm MERTK (MERTK) | ΔTm OSR1 (OSR1) | ΔTm PAK1 (PAK1) | ΔTm STK10 (STK10) | ΔTm WNK1 (WNK1)
CC(C)(C)OC(=O)Nc1ccc(CNc2nccc(Nc3cc(C(=O)OC(C)(C)C)[nH]n3)n2)cc1 [43d, tert-butyl 3-((2-((4-((tert-butoxycarbonyl)amino)benzyl)amino)pyrimidin-4-yl)amino)-1H-pyrazole-5-carboxylate] | 1.2 °C | -0.8 °C | -0.4 °C | -2.1 °C | 1.7 °C | 0.9 °C | -3.0 °C | 1.3 °C | 0.2 °C | -0.8 °C | -0.4 °C | -0.6 °C | -0.8 °C | -0.1 °C
CN[C@@H]1C[C@H]2O[C@@](C)([C@@H]1OC)n1c3ccccc3c3c4c(c5c6ccccc6n2c5c31)C(=O)NC4 [staurosporine, reference compound] | 8.6 °C | 2.8 °C | 9.8 °C | 12.4 °C | 5.0 °C | 13.6 °C | 8.4 °C | 7.5 °C | 13.8 °C | 6.6 °C | 7.7 °C | 6.6 °C | 23.3 °C | 0.9 °C
CC(C)OC(=O)c1cc(Nc2ccnc(NCc3ccc(NC(=O)OC(C)(C)C)cc3)n2)n[nH]1 [42d, isopropyl 3-((2-((4-((tert-butoxycarbonyl)amino)benzyl)amino)pyrimidin-4-yl)amino)-1H-pyrazole-5-carboxylate] | 0.4 °C | -0.7 °C | -0.3 °C | -2.4 °C | 1.3 °C | 0.6 °C | -0.3 °C | 1.0 °C | -0.8 °C | -0.8 °C | -0.8 °C | -1.1 °C | -0.7 °C | 0.1 °C
COC(=O)c1cc(Nc2ccnc(NCCOCCNC(=O)OC(C)(C)C)n2)[nH]n1 [21d, methyl 5-((2-((2-(2-((tert-butoxycarbonyl)amino)ethoxy)ethyl)amino)pyrimidin-4-yl)amino)-1H-pyrazole-3-carboxylate] | -0.2 °C | 0.5 °C | -2.4 °C | 1.5 °C | 0.8 °C | 2.0 °C | 0.7 °C | 0.5 °C | 0.8 °C | 1.9 °C | 0.3 °C | 1.1 °C | -0.7 °C | 0.9 °C
N#CCc1ccc(Nc2nccc(Nc3cc(C4CC4)[nH]n3)n2)cc1 [compound 1, reference compound] | 5.4 °C | -0.1 °C | 4.9 °C | 8.9 °C | 5.1 °C | 10.6 °C | 12.0 °C | 8.0 °C | 9.8 °C | 4.4 °C | 5.6 °C | 3.3 °C | 10.1 °C | 1.1 °C
COC(=O)c1cc(Nc2ccnc(NCc3ccc(NC(=O)OC(C)(C)C)cc3)n2)[nH]n1 [21i, methyl 5-((2-((4-((tert-butoxycarbonyl)amino)benzyl)amino)pyrimidin-4-yl)amino)-1H-pyrazole-3-carboxylate] | -0.4 °C | -0.5 °C | 0.6 °C | -0.6 °C | 0.4 °C | 2.2 °C | 0.5 °C | 1.0 °C | 0.9 °C | -0.1 °C | 0.6 °C | -0.4 °C | -0.7 °C | 0.6 °C
